Laboratory results published in patent US20140323443A1, “TIGECYCLINE FORMULATIONS” (Fresenius Kabi USA, LLC, priority 2013, published 2014).

Experiments:
[1] = pH of a saturated solution of tigecycline in water; format: physicochemical
Experimental: A solid composition that includes tigecycline and arginine may further include an acid and/or a base. The pH of a saturated solution of tigecycline in water is about 8. The amount of the acid and/or base may be an amount sufficient to provide a pH in the range of from 4 to 6 when a composition containing 53 mg tigecycline is reconstituted in 5.3 mL of an aqueous carrier liquid, such as 0.9% sodium chloride injection. Preferably the amount of the acid and/or base may be an amount sufficient to provide a pH in the range of from 4.25 to 5.75, from 4.5 to 5.75, from 4.5 to 5.5, or from 4.75 to 5.25 when a composition containing 53 mg tigecycline is reconstituted in 5.3 mL of an aqueous carrier liquid. In some embodiments, hydrochloric acid and/or sodium hydroxide is used to adjust pH.

[2] = cited from earlier work
[3] = aqueous liquid at 2-8° C., water sparged and tigecycline blanketed with inert gas, for 24 hours; cited from earlier work

CN(C)c1cc(NC(=O)CNC(C)(C)C)c(O)c2c1C[C@H]1C[C@H]3[C@H](N(C)C)C(O)=C(C(N)=O)C(=O)[C@@]3(O)C(O)=C1C2=O [tigecycline, (4S,4aS,5aR,12aS)-9-[2-(tert-butylamino)acetamido]-4,7-bis(dimethyl-amino)-1,4,4a,5,5a,6,11,12a-octahydro-3,10,12,12a-tetrahydroxy-1,11-dioxo-2-naphthacenecarboxamide]
pH of a saturated solution in water [1]: about 8 | oral bioavailability [2]: poor | amount of tigecycline converted into degradants prior to lyophilization [3]: below 1%
